From patent US7534801B2, “Piperidinylchromen-6-ylsulfonamide compounds as 5-hydroxytryptamine-6 ligands” (Wyeth, priority 2003, dated 2009)
pKi: −log10 of the molar value. Counter-ions that a name gives are not always drawn.

What was measured:
[1] = target: human cloned 5-HT6 receptors (Homo sapiens, UniProt P50406)
Sequence of human cloned 5-HT6 receptors (P50406 whole entry): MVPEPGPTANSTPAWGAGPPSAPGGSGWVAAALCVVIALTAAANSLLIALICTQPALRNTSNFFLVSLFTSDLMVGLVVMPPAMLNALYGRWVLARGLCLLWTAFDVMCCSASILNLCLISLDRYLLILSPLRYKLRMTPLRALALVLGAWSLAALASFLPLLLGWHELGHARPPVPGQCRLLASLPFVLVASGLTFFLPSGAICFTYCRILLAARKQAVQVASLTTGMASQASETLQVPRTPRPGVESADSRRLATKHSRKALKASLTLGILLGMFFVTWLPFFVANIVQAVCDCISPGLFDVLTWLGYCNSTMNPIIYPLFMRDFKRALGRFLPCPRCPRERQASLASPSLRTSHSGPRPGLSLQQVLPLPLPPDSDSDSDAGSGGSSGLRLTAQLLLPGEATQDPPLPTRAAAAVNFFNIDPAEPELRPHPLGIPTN

pKi [1] | melting point [°C] | Compound
9.00 |  | O=S(=O)(Nc1ccc2c(c1)C(C1CCNCC1)=CCO2)c1ccccc1 [Example 14, N(4-Piperidin-4-yl-2H-chromen-6-yl)benzenesulfonamide Hemihydrate]
8.70 | > 240 | O=S(=O)(Nc1ccc2c(c1)C(C1CCNCC1)=CCO2)c1ccc(Cl)cc1 [Example 15, 4-chloro-N-(4-piperidin-4-yl-2H-chromen-6-yl)benzenesulfonamide]
8.70 |  | O=S(=O)(Nc1ccc2c(c1)C(C1CCNCC1)=CCO2)c1cccc2ccccc12 [Example 16, N-(4-piperidin-4-yl-2H-chromen-6-yl)naphthalene-1-sulfonamide]
7.92 |  | O=S(=O)(Nc1ccc2c(c1)C(C1CCNCC1)CCO2)c1ccccc1 (centres unmarked) [Example 23, N(4-Piperidin-4-dihydro-2H-chromen-6-yl)benzenesulfonamid Hydrochloride]
